Data set [1] concerns the target T1, 5-HT2C receptor (Homo sapiens, UniProt P28335).
T1 sequence (P28335 33-458): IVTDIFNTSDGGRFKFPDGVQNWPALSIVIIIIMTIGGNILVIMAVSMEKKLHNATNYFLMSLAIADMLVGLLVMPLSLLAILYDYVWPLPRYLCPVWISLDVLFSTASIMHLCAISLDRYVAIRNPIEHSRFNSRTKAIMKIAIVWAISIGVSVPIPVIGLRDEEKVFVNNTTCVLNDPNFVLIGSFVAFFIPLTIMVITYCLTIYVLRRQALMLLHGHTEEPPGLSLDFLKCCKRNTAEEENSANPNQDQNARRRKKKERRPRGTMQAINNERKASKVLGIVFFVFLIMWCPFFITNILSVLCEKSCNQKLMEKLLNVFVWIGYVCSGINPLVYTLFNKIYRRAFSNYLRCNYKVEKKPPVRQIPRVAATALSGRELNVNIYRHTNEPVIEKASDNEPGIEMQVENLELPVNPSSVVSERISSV
Description: Binding to 5-HT2C receptor, [3H]-5-HT radioligand, Method (a). More on the design: expressed in transfected cells; host or cells: CHO cell line. The settings on record: 5-HT2C receptors in a CHO cell line, read-out: Method (a) Ki (2C). On the procedure: (§1) The binding of compounds of formula (I) to serotonin receptors was determined in vitro by standard methods. The preparations were investigated in accordance with the assays given hereinafter.
Method (a): For the binding to the 5-HT2C receptor the 5-HT2C receptors were radiolabeled with [^3H]-5-HT. The affinity of the compounds for 5-HT2C receptors in a CHO cell line was determined according to the procedure of D. Hoyer, G. Engel and H. O. Kalkman, European J. Pharmacol., 1985, 118, 13-23.

The target in the next data set is T2, human 5-HT2B receptors (Homo sapiens, UniProt P41595).
T2 construct: expressed in transfected cells; host or cells: CHO cell line
Nature of the data set: Binding to 5-HT2B receptor, [3H]-5-HT radioligand, Method (b). The settings on record: human 5-HT2B receptors in a CHO cell line, read-out: Method (b) Ki (2B). As to the method:
as §1
Method (b): For the binding to the 5-HT2B receptor the 5-HT2B receptors were radiolabeled with [^3H]-5-HT. The affinity of the compounds for human 5-HT2B receptors in a CHO cell line was determined according to the procedure of K. Schmuck, C. Ullmer, P. Engels and H. Lubbert, FEBS Lett., 1994, 342, 85-90.

Data set [2] concerns the target T3, 5-HT2A receptor (Homo sapiens, UniProt P28223). Nature of the data set: Binding to 5-HT2A receptor, [125I]-DOI radioligand, Method (c). Set-up: expressed in transfected cells; host or cells: CHO cell line. The settings on record: 5-HT2A receptors in a CHO cell line, read-out: Method (c) Ki (2A). On the procedure:
as §1
Method (c): For the binding to the 5-HT2A receptor the 5-HT2A receptors were radiolabeled with [^125I]-DOI. The affinity of the compounds for 5-HT2A receptors in a CHO cell line was determined according to the procedure of D. J. McKenna and S. J. Peroutka, J. Neurosci., 1989, 9, 3482-90.

Data set [3] addresses T1, 5-HT2C receptor. Description: Functional activity, FLIPR calcium assay in CHO cells expressing human 5-HT2C. The class given is cell-based. Set-up: expressed in transfected cells; host or cells: CHO cells. The settings on record: for EC50: CHO cells, FLIPR, Fluo-3-AM, read-out: h5-HT2C EC50; for h5-HT2C Rel. Eff.: maximum fluorescent signal relative to 10 μM 5-HT (defined as 100%). On the procedure: (§2) The functional activity of compounds of formula (I) was assayed using a Fluorimetric Imaging Plate Reader (FLIPR). CHO cells expressing the human 5-HT2C or human 5-HT2A receptors were counted and plated into standard 96 well microtitre plates on the day before testing to give a confluent monolayer. The cells were then loaded with the calcium sensitive dye, Fluo-3-AM. Unincorporated dye was removed using an automated cell washer to leave a total volume of 100 μL/well of assay buffer (Hanks balanced salt solution containing 20 mM Hepes and 2.5 mM probenecid). The drug (dissolved in 50 μL of the assay buffer) was added at a rate of 70 μL/sec to each well of the FLIPR 96 well plate during fluorescence measurements. The measurements were taken at 1 sec intervals and the maximum fluorescent signal was measured (approx 10-15 secs after drug addition) and compared with the response produced by 10 μM 5-HT (defined as 100%) to which it was expressed as a percentage response (relative efficacy). Dose response curves were constructed using Graphpad Prism (Graph Software Inc.).

Data set [4] addresses T3, 5-HT2A receptor. Nature of the data set: Functional activity, FLIPR calcium assay in CHO cells expressing human 5-HT2A. The settings on record: for EC50: CHO cells, FLIPR, Fluo-3-AM, read-out: h5-HT2A EC50; for h5-HT2A Rel. Eff.: maximum fluorescent signal relative to 10 μM 5-HT (defined as 100%). Type of data set: cell-based. Set-up: expressed in transfected cells; host or cells: CHO cells. As to the method: as §2

T3 sequence (P28223 whole entry): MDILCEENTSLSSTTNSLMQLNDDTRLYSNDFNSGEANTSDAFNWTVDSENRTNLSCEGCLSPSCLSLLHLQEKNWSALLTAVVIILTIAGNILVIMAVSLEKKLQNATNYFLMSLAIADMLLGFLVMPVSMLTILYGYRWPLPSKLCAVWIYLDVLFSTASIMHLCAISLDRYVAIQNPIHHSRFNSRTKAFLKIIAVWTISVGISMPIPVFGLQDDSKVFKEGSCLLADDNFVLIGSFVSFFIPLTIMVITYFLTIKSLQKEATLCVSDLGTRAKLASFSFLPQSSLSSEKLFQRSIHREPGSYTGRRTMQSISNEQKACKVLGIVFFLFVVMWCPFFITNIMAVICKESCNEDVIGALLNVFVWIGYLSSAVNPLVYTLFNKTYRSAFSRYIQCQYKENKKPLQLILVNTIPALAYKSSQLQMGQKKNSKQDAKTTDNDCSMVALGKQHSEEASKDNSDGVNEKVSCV
T2 sequence (P41595 whole entry): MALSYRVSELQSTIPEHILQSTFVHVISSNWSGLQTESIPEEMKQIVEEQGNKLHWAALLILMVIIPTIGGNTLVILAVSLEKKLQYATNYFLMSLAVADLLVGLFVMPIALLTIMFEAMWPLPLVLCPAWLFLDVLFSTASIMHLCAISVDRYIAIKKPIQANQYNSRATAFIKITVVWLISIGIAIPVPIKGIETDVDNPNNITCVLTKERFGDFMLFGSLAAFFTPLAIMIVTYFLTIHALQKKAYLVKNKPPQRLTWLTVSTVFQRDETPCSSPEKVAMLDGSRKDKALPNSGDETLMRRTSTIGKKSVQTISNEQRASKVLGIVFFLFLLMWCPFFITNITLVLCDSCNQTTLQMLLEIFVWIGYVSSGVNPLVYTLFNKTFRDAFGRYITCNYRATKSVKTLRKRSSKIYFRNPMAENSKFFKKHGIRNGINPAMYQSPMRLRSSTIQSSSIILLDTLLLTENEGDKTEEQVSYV

With `Cc1c2c(nc3c1C[C@@H]1CNC[C@@H](C)N31)COC2`, the melting point lay in the range of 118 to 119 °C.
The same measure, in the same setting: the same measure for `C[C@@H]1OCc2cc3c(nc21)N1[C@@H](CNC[C@H]1C)C3`: 90 to 91 °C.
Take `C[C@@H]1CNC[C@H]2Cc3cc4c(nc3N21)[C@H](C1CC1)OC4` [Example 17, (3S,5R,8aR)-3-Cyclopropyl-5-methyl-1,3,5,6,7,8,8a,9-octahydro-2-oxa-4,4b,7-triaza-cyclopehta[b]fluorene]: the values for the inhibition constant Ki on 5-HT2C receptor [1], at human 5-HT2B receptors and on 5-HT2A receptor [2] were 23.4 nM, 760 nM and 635 nM, respectively. Moreover, the EC50 on 5-HT2C receptor [3] turned out to be 12.4 nM; at 5-HT2A receptor [4], 534 nM. The “h5-HT2C Rel. Eff.” value at 5-HT2C receptor [3] came to 95%. At 5-HT2A receptor [4], the “h5-HT2A Rel. Eff.” value came out at 35%.
For `C[C@@H]1CNC[C@H]2Cc3cc4c(nc3N21)C(C)(C)OC4` [Example 19, (5R,8aR)-3,3,5-Trimethyl-1,3,5,6,7,8,8a,9-octahydro-2-oxa-4,4b,7-triaza-cyclopenta[b]fluorene], the Ki at 5-HT2C receptor [1] is 5.5 nM; on human 5-HT2B receptors, 26.3 nM; on 5-HT2A receptor [2], 80.2 nM. For the same compound, the half-maximal effective concentration (EC50) at 5-HT2C receptor [3] was 8.4 nM; at 5-HT2A receptor [4], over 1000 nM. In addition, the “h5-HT2C Rel. Eff.” value on 5-HT2C receptor [3] turned out to be 87%. Moreover, the “h5-HT2A Rel. Eff.” value at 5-HT2A receptor [4] came to 3%.
With `C[C@@H]1CNC[C@H]2Cc3cc4c(nc3N21)CSC4` [Example 33, (5R,8aR)-5-Methyl-1,3,5,6,7,8,8a,9-octahydro-2-thia-4,4b,7-triaza-cyclopenta[b]fluorene], the Ki on 5-HT2C receptor [1] came out at 5.3 nM; at human 5-HT2B receptors it was 21.1 nM; on 5-HT2A receptor [2], 98.9 nM.

Source of the values: patent US7547699B2, “Tetracyclic 6 azapyrazinoindolines as 5HT2C receptor agonists for obesity” (Hoffmann-La Roche Inc., priority 2005, dated 2009).
